Values joined by “and” are separate entries in the source; they are usually repeats but may differ in a detail not shown here. Equal entries are not always repeated.
Legend:
kaoline oedema = assay: Rat paw oedema, kaoline (Table 4'); type: in vivo; conditions: female rats; for Effect % (average), inhibition of kaoline oedema: average of repeated tests
Method: (§1) Inflammatory plantar oedema was provided by the subplantar injection of 0.1 ml. of 5% kaoline or 0.5% carrageenine on female rats each weighing 110 to 130 g., starved for 24 hours. The dorsoplantar diameter of the test animals was measured with a double-armed instrument prior to the administration of the phlogistic (basic value) and at regular intervals (at 2, 3.5 and 5 hours for kaoline and at 1.5, 3 and 4.5 hours for carrageenine) after the administration of the phlogistic. […] The treatment was always carried out 1 hour before the administration of the phlogistic. The animals belonging to the control group received suspending agent only. In order to ensure a uniform hydration grade, 1 ml. of tap water was administered through a stomach tube to the animals simultaneously with the administration of the active agent. During the test period the animals were allowed to consume water ad libitum.
(§2) The effect was calculated from the difference of the increase in paw diameter observed in the treated and control groups. The daga are given as percentage efficiacy.
(§3) The significance level was examined by Student's t test. The significance levels are marked by asterisks; the values of the repeated tests are given separately.

writhing syndrome = assay: Writhing syndrome, comparison with Indomethacine (Table 7); type: in vivo, mouse; conditions: male mice
Method: The tests were carried out on male mice each weighing 15 to 18 g., starved for 16 hours prior to treatment. 0.1 ml./10 g. body weight of 1% acetic acid solution was injected intraperitoneally to the animals. The sterile inflammation occurred on the action of acetic acid provoked a characteristic syndrome (writhing). The number of writhings was counted during an observation period of 20 minutes, starting 15 minutes after the administration of acetic acid. The substance to be tested was administered orally as a suspension, in a dosage of 0.1 ml./10 g. body weight 2 to 4 hours before the acetic acid injection. The average number of writhings observed for the treated animals was compared to that observed in the control group, and the percentage inhibition was calculated from the difference.

cotton granuloma = assay: Cotton granuloma, comparison with Indomethacine (Table 6); type: in vivo, rat; conditions: male rats, oral daily 4 mg./kg., 7 days, p 0.001
Method: Two cotton beads, each weighing 23 to 27 mg., were implanted under the dorsal skin of the animals in aether narcosis, under semisterile conditions, along both sides of the vertebral column. The compound under examination was administered twice a day for 7 days in oral dosages of 0.2 ml./100 g. body weight, in a suspension formed with 1% methyl cellulose. On the 8th day the animals were killed by etheral overnarcosis, the granulomes were removed, dried at 50° C for 5 hours, and then weighed. The animals belonging to the control group were treated similarly, but they received suspending agent only. The percentage efficiacy was calculated from the weight differences of the granuloma tissues observed for the treated and control groups. The significance was examined by the t test.

carrageenine oedema = assay: Rat paw oedema, carrageenine (Table 5'); type: in vivo; conditions: female rats, p.o. 10 mg./kg.; for Effect % (average), inhibition of carrageenine oedema: average of repeated tests
Method: as §1, §2, §3

[1] = Toxicity on mice after oral administration, single dosage (Table 1'); type: in vivo; conditions: mouse, in vivo, po; male mice, p.o., 168 hours; read-out: LD50
Method: (§4) The tests were carried out on male mice weighing 25 to 30 g., not starved previously. The compounds were administered in a dosage of 0.2 ml. of suspension per 10 g. body weight. The individual dosages indicated in Table 1' were administered to 10 mice each. The given amount of active agent was added in a single dosage, and the animals were dept under observation for 7 days (= 168 hours). The number of deceased animals was recorded daily.
(§5) The LD50 values were calculated according to the Litchfied-Wilcoxon method, by also taking into account the number of animals perished within 168 hours from the administration.

mice = assay: as above; type: in vivo; conditions: male mice
Method: as §4, §5

rats = assay: Ulcerogeneous action on rats, comparison with Indomethacine (Table 3'); conditions: male rats, 5 days

## COc1ccc2c(c1)c(CC(=O)O)c(C)n2C(=O)c1ccc(Cl)cc1 [Indomethacine, reference compound]
Kaoline oedema; p.o. 10 mg./kg., 2 hours
  Effect %, inhibition of kaoline oedema: 14.7% and 19.7%
  Effect % (average), inhibition of kaoline oedema: 17.2%
Kaoline oedema; p.o. 10 mg./kg., 3.5 hours
  Effect %, inhibition of kaoline oedema: 19.5% and 27.6%
  Effect % (average), inhibition of kaoline oedema: 23.5%
Kaoline oedema; p.o. 10 mg./kg., 5 hours
  Effect %, inhibition of kaoline oedema: 21.2% and 27.2%
  Effect % (average), inhibition of kaoline oedema: 24.2%
Kaoline oedema; p.o. 25 mg./kg., 2 hours
  Effect %, inhibition of kaoline oedema: 33.7% and 32.7%
  Effect % (average), inhibition of kaoline oedema: 33.2%
Kaoline oedema; p.o. 25 mg./kg., 3.5 hours
  Effect %, inhibition of kaoline oedema: 35.1% and 37.1%
  Effect % (average), inhibition of kaoline oedema: 36.1%
Kaoline oedema; p.o. 25 mg./kg., 5 hours
  Effect %, inhibition of kaoline oedema: 32.1% and 44.4%
  Effect % (average), inhibition of kaoline oedema: 38.2%
Writhing syndrome; p.o. 5 mg./kg., 2 hours
  Effect %, writhing: 58.2% and 61.1%
  Effect % average, writhing: 59.6%
Writhing syndrome; p.o. 5 mg./kg., 4 hours
  Effect %, writhing: 65.7% and 43.7%
  Effect % average, writhing: 54.7%
Writhing syndrome; p.o. 12.5 mg./kg., 2 hours
  Effect %, writhing: 73.6% and 67.2%
  Effect % average, writhing: 70.4%
Writhing syndrome; p.o. 12.5 mg./kg., 4 hours
  Effect %, writhing: 85.8% and 70.0%
  Effect % average, writhing: 77.9%
Cotton granuloma
  Effect %, cotton granuloma: 36.0%
Carrageenine oedema; 1.5 hours
  Effect %, inhibition of carrageenine oedema: 24.1% and 20.6%
  Effect % (average), inhibition of carrageenine oedema: 22.3%
Carrageenine oedema; 3 hours
  Effect %, inhibition of carrageenine oedema: 32.9% and 28.8%
  Effect % (average), inhibition of carrageenine oedema: 30.8%
Carrageenine oedema; 4.5 hours
  Effect %, inhibition of carrageenine oedema: 19.8% and 20.9%
  Effect % (average), inhibition of carrageenine oedema: 20.3%
[1]
  LD50 at 168 h: 140 mg/kg
mice; oral 50 mg./kg., 24 h
  Perished animals/treated animals: 0/10
mice; oral 50 mg./kg., 48 h
  Perished animals/treated animals: 0/10
mice; oral 50 mg./kg., 72 h
  Perished animals/treated animals: 0/10
mice; oral 50 mg./kg., 96 h
  Perished animals/treated animals: 0/10
mice; oral 50 mg./kg., 120 h
  Perished animals/treated animals: 0/10
mice; oral 50 mg./kg., 144 h
  Perished animals/treated animals: 0/10
mice; oral 50 mg./kg., 168 h
  Perished animals/treated animals: 0/10
mice; oral 150 mg./kg., 24 h
  Perished animals/treated animals: 0/10
mice; oral 150 mg./kg., 48 h
  Perished animals/treated animals: 0/10
mice; oral 150 mg./kg., 72 h
  Perished animals/treated animals: 0/10
mice; oral 150 mg./kg., 96 h
  Perished animals/treated animals: 2/10
mice; oral 150 mg./kg., 120 h
  Perished animals/treated animals: 4/10
mice; oral 150 mg./kg., 144 h
  Perished animals/treated animals: 6/10
mice; oral 150 mg./kg., 168 h
  Perished animals/treated animals: 6/10
mice; oral 300 mg./kg., 24 h
  Perished animals/treated animals: 0/10
mice; oral 300 mg./kg., 48 h
  Perished animals/treated animals: 0/10
mice; oral 300 mg./kg., 72 h
  Perished animals/treated animals: 4/10
mice; oral 300 mg./kg., 96 h
  Perished animals/treated animals: 6/10
mice; oral 300 mg./kg., 120 h
  Perished animals/treated animals: 8/10
mice; oral 300 mg./kg., 144 h
  Perished animals/treated animals: 10/10
mice; oral 300 mg./kg., 168 h
  Perished animals/treated animals: 10/10
mice; oral 500 mg./kg., 24 h
  Perished animals/treated animals: 0/10
mice; oral 500 mg./kg., 48 h
  Perished animals/treated animals: 2/10
mice; oral 500 mg./kg., 72 h
  Perished animals/treated animals: 4/10
mice; oral 500 mg./kg., 96 h
  Perished animals/treated animals: 7/10
mice; oral 500 mg./kg., 120 h
  Perished animals/treated animals: 9/10
mice; oral 500 mg./kg., 144 h
  Perished animals/treated animals: 10/10
mice; oral 500 mg./kg., 168 h
  Perished animals/treated animals: 10/10
mice; oral 700 mg./kg., 24 h
  Perished animals/treated animals: 1/10
mice; oral 700 mg./kg., 48 h
  Perished animals/treated animals: 5/10
mice; oral 700 mg./kg., 72 h
  Perished animals/treated animals: 5/10
mice; oral 700 mg./kg., 96 h
  Perished animals/treated animals: 7/10
mice; oral 700 mg./kg., 120 h
  Perished animals/treated animals: 9/10
mice; oral 700 mg./kg., 144 h
  Perished animals/treated animals: 9/10
mice; oral 700 mg./kg., 168 h
  Perished animals/treated animals: 10/10
mice; oral 900 mg./kg., 24 h
  Perished animals/treated animals: 1/10
mice; oral 900 mg./kg., 48 h
  Perished animals/treated animals: 4/10
mice; oral 900 mg./kg., 72 h
  Perished animals/treated animals: 6/10
mice; oral 900 mg./kg., 96 h
  Perished animals/treated animals: 8/10
mice; oral 900 mg./kg., 120 h
  Perished animals/treated animals: 10/10
mice; oral 900 mg./kg., 144 h
  Perished animals/treated animals: 10/10
mice; oral 900 mg./kg., 168 h
  Perished animals/treated animals: 10/10
rats; oral 4 mg./kg.
  Animals having lesions on the intestines: 5%
  Perishment: 0/20
  Survivals: 20
  Ulcer index: 0.45
  Ulcer number: 0.1
rats; oral 8 mg./kg.
  Animals having lesions on the intestines: 40%
  Perishment: 10/20
  Survivals: 10
  Ulcer index: 0.3
  Ulcer number: 0
